The results in this text go back to patent US12570612B2, “Substituted nitrogen heterocyclic compound and anesthetic effect thereof” (priority 2019, dated 2026).

Entries after “also recorded” stand apart in the source; their conditions may differ.

The first data set has as its system H295R cell line. As to the kind of experiment: Adrenocortical function in vitro test: secretion of cortisol and corticosterone, Group B compounds. Type of data set: cell-based. To be noted: H295R cells.
With `CC(C)O[C@H]1C[C@@H](OC(=O)c2cnnn2[C@H](C)c2ccccc2)C1` [Compound B26], the “Corticosterone as an indicator to determine the presence of inhibition” value (from here on “Corticosterone as an indicator … of inhibition”) was determined as 0 and the “Cortisol as an indicator to determine the presence of inhibition” value (from here on “Cortisol as an indicator … of inhibition”) is recorded as 0.

The same data set, now with this note: Homo sapiens, NCI-H295R, H295R cells, 0.1-10000 nM, HPLC-MS/MS; read-out: EC50 (Corticosterone).
Usually EC50 stands for the concentration giving half of the maximal effect. Turning to `CC(C)O[C@H]1C[C@@H](OC(=O)c2cnnn2[C@H](C)c2ccccc2)C1` [Compound B26], the EC50 was over 100 nM.

The same data set, now with this note: Homo sapiens, NCI-H295R, H295R cells, 0.1-10000 nM, HPLC-MS/MS; read-out: EC50 (Cortisol).
Regarding `CC(C)O[C@H]1C[C@@H](OC(=O)c2cnnn2[C@H](C)c2ccccc2)C1` [Compound B26], the EC50 was over 100 nM.

In the next data set the test system is Sprague-Dawley rats. In words: Pharmacological characteristics at equivalent doses (2ED50), Group A compounds. Type of data set: in vivo. As to conditions: 2ED50, tail vein.
In the case of `C=C=CC1(OC(=O)c2c(C(F)(F)F)cnn2[C@H](C)c2ccccc2)COC1` [Compound A100], the Onset time amounted to 0.49 ± 0.17 min and the Righting reflex duration came to 3.21 ± 0.89 min.
For the compound `CC#CC(C)(C)OC(=O)c1c(F)cnn1[C@H](C)c1ccccc1` [Compound A83], the Onset time was found to be 0.43 ± 0.32 min and the Righting reflex duration turned out to be 3.21 ± 0.41 min.
In the same order, the values of `CCOC(=O)c1ccnn1[C@H](C)c1ccccc1` [Compound A1] are 0.56 ± 0.26 min and 2.24 ± 1.29 min.
On to `C=C=CC1(OC(=O)c2c(F)cnn2[C@H](C)c2ccccc2)COC1` [Compound A73], for which the Onset time worked out at 0.42 ± 0.07 min and the Righting reflex duration is recorded as 1.21 ± 0.45 min.
For the compound `COC(=O)C1=C(OC(=O)c2cc(F)nn2[C@H](C)c2ccccc2)CCCC1` [Compound A54], the Onset time came to 0.69 ± 0.11 min and the Righting reflex duration is given as 2.13 ± 1.80 min.
For `CC#CC(C)OC(=O)c1ccnn1[C@H](C)c1ccccc1` (stereo partly drawn) [Compound A11], in that order: 0.41 ± 0.15 min and 2.65 ± 1.10 min.
As for `CC#CC(C)(C)OC(=O)c1ccnn1[C@H](C)c1ccccc1` [Compound A12], the Onset time came out at 0.69 ± 0.22 min and the Righting reflex duration is recorded as 3.16 ± 2.13 min.

The same data set, now with this note: 2ED50, tail vein, (animals affected/animals).
For `C=C=CC1(OC(=O)c2c(C(F)(F)F)cnn2[C@H](C)c2ccccc2)COC1` [Compound A100], the “Types and incidence of adverse reactions” value was “Red urine(8/8), Indirect; also recorded: tremor Tremor(4/8), Four; also recorded: limbs; also recorded: rigidity(2/8), Euphoria(2/8)”.
For the compound `C=C=CC1(OC(=O)c2c(F)cnn2[C@H](C)c2ccccc2)COC1` [Compound A73], the “Types and incidence of adverse reactions” value is “Red and urine(8/8), Tremor(3/8), and Facial muscle and twitching(2/8), Euphoria and (1/8), Nod(1/8)”.
Consider `COC(=O)C1=C(OC(=O)c2cc(F)nn2[C@H](C)c2ccccc2)CCCC1` [Compound A54], for which the “Types and incidence of adverse reactions” value was “rigidity; also recorded: (3/8), GeneralTremor(1/8); also recorded: Red urine(8/8), Hindlimb”.
The same measure, in the same setting: the same measure for `CC#CC(C)OC(=O)c1ccnn1[C@H](C)c1ccccc1` (stereo partly drawn) [Compound A11]: “Red urine(6/6), General; also recorded: Tremor(4/6), Hindlimb; also recorded: rigidity (2/6),; also recorded: Convulsion(1/6),; also recorded: Euphoria(1/6)”; for `CC#CC(C)(C)OC(=O)c1ccnn1[C@H](C)c1ccccc1` [Compound A12]: “Red urine(8/8),; also recorded: Tremor(3/8),; also recorded: Euphoria(1/8), Hindlimb; also recorded: rigidity (1/8), Clonic; also recorded: convulsion(1/8), Tetany; also recorded: Apnea(1/8), Nod(1/8)”.

The test system of another data set is H295R cell line. As to the kind of experiment: Adrenocortical function in vitro test: secretion of cortisol and corticosterone, Group A compounds. It counts as cell-based. As to conditions: H295 cells.
Consider `C=C=CC1(OC(=O)c2c(C(F)(F)F)cnn2[C@H](C)c2ccccc2)COC1` [Compound A100], for which the “Corticosterone as an indicator … of inhibition” value worked out at 0 and the “Cortisol as an indicator … of inhibition” value was determined as 0.
Turning to `CC#CC(C)(C)OC(=O)c1c(F)cnn1[C@H](C)c1ccccc1` [Compound A83], the “Corticosterone as an indicator … of inhibition” value came out at 0 and the “Cortisol as an indicator … of inhibition” value amounted to 0.
Turning to `CCOC(=O)c1ccnn1[C@H](C)c1ccccc1` [Compound A1], the “Corticosterone as an indicator … of inhibition” value was 0 and the “Cortisol as an indicator … of inhibition” value is 0.
`C=C=CC1(OC(=O)c2c(F)cnn2[C@H](C)c2ccccc2)COC1` [Compound A73]: the “Corticosterone as an indicator … of inhibition” value worked out at 0 and the “Cortisol as an indicator … of inhibition” value is 0.
For `COC(=O)C1=C(OC(=O)c2cc(F)nn2[C@H](C)c2ccccc2)CCCC1` [Compound A54], the “Corticosterone as an indicator … of inhibition” value is 0 and the “Cortisol as an indicator … of inhibition” value is 0.
On to `CC#CC(C)OC(=O)c1ccnn1[C@H](C)c1ccccc1` (stereo partly drawn) [Compound A11], for which the “Corticosterone as an indicator … of inhibition” value is 0 and the “Cortisol as an indicator … of inhibition” value is reported as 0.
Turning to `CC#CC(C)(C)OC(=O)c1ccnn1[C@H](C)c1ccccc1` [Compound A12], the “Corticosterone as an indicator … of inhibition” value is 0 and the “Cortisol as an indicator … of inhibition” value amounted to 0.

The same data set, now with this note: Homo sapiens; H295 cells, 0.1-10000 nM, HPLC-MS/MS; read-out: EC50 (Corticosterone).
Take `C=C=CC1(OC(=O)c2c(C(F)(F)F)cnn2[C@H](C)c2ccccc2)COC1` [Compound A100]: the EC50 was over 100 nM.
On to `CC#CC(C)(C)OC(=O)c1c(F)cnn1[C@H](C)c1ccccc1` [Compound A83], for which the EC50 was over 1000 nM.
As to `CCOC(=O)c1ccnn1[C@H](C)c1ccccc1` [Compound A1], the half-maximal effective concentration (EC50) was over 1000 nM.
Consider `C=C=CC1(OC(=O)c2c(F)cnn2[C@H](C)c2ccccc2)COC1` [Compound A73], for which the EC50 was over 1000 nM.
On to `COC(=O)C1=C(OC(=O)c2cc(F)nn2[C@H](C)c2ccccc2)CCCC1` [Compound A54], for which the 50% effective concentration (EC50) is over 100 nM.
In the case of `CC#CC(C)OC(=O)c1ccnn1[C@H](C)c1ccccc1` (stereo partly drawn) [Compound A11], the half-maximal effective concentration (EC50) was over 100 nM.
In the case of `CC#CC(C)(C)OC(=O)c1ccnn1[C@H](C)c1ccccc1` [Compound A12], the EC50 is over 100 nM.

The data set is the same for the next values; noted with them: Homo sapiens; H295 cells, 0.1-10000 nM, HPLC-MS/MS; read-out: EC50 (Cortisol).
Regarding `C=C=CC1(OC(=O)c2c(C(F)(F)F)cnn2[C@H](C)c2ccccc2)COC1` [Compound A100], the EC50 was over 100 nM.
As to `CC#CC(C)(C)OC(=O)c1c(F)cnn1[C@H](C)c1ccccc1` [Compound A83], the EC50 is over 1000 nM.
For `CCOC(=O)c1ccnn1[C@H](C)c1ccccc1` [Compound A1], the EC50 is over 1000 nM.
Take `C=C=CC1(OC(=O)c2c(F)cnn2[C@H](C)c2ccccc2)COC1` [Compound A73]: the EC50 was over 1000 nM.
Consider `COC(=O)C1=C(OC(=O)c2cc(F)nn2[C@H](C)c2ccccc2)CCCC1` [Compound A54], for which the concentration for a half-maximal effect (EC50) is over 100 nM.
As for `CC#CC(C)OC(=O)c1ccnn1[C@H](C)c1ccccc1` (stereo partly drawn) [Compound A11], the EC50 was over 100 nM.
As for `CC#CC(C)(C)OC(=O)c1ccnn1[C@H](C)c1ccccc1` [Compound A12], the EC50 was over 100 nM.

The subject of a further data set is Sprague-Dawley rats. In words: animal or person. As to conditions: Rattus norvegicus. On the procedure:
(§1) Adult male Sprague-Dawley rats (250-300 g) were selected for the experiment. […] The anesthesia effects of the compounds were assessed in rats using a LORR assay and a period >30 s was considered as an indicator of general anesthesia.
What is called ED50 is the dose at which the effect has come halfway, by size or by number of responders. Low readings indicate an effect at a small dose, high ones a need for a large dose. The compound `C=C=CC1(OC(=O)c2c(C(F)(F)F)cnn2[C@H](C)c2ccccc2)COC1` [Compound A100] came in with a 50% effective dose (ED50) of 2 to 6 mg/kg.
On the same count and under the same terms, the value for `CC#CC(C)(C)OC(=O)c1c(F)cnn1[C@H](C)c1ccccc1` [Compound A83] was 1 to 2 mg/kg; that for `CCOC(=O)c1ccnn1[C@H](C)c1ccccc1` [Compound A1] was 1 to 2 mg/kg.
The compound `C=C=CC1(OC(=O)c2c(F)cnn2[C@H](C)c2ccccc2)COC1` [Compound A73] registered a median effective dose (ED50) of 0.04 to 0.5 mg/kg.
As for `COC(=O)C1=C(OC(=O)c2cc(F)nn2[C@H](C)c2ccccc2)CCCC1` [Compound A54], the ED50 was in the range of 1 to 2 mg/kg.
Same read-out and setting: the value for `CC#CC(C)OC(=O)c1ccnn1[C@H](C)c1ccccc1` (stereo partly drawn) [Compound A11] was 1 to 2 mg/kg; that for `CC#CC(C)(C)OC(=O)c1ccnn1[C@H](C)c1ccccc1` [Compound A12] was 1 to 2 mg/kg.

The data set is the same for the next values; noted with them: rats.
For the compound `C=C=CC1(OC(=O)c2c(C(F)(F)F)cnn2[C@H](C)c2ccccc2)COC1` [Compound A100], the Approximate therapeutic index is on record as over 6 and the Minimal lethal dose is on record as over 14 mg/kg.
For `CC#CC(C)(C)OC(=O)c1c(F)cnn1[C@H](C)c1ccccc1` [Compound A83], in that order: over 10 and over 12 mg/kg.
For `CCOC(=O)c1ccnn1[C@H](C)c1ccccc1` [Compound A1], the Approximate therapeutic index was over 8 and the Minimal lethal dose is given as over 16 mg/kg.
In the case of `C=C=CC1(OC(=O)c2c(F)cnn2[C@H](C)c2ccccc2)COC1` [Compound A73], the Approximate therapeutic index was over 25 and the Minimal lethal dose is given as over 2 mg/kg.
For `COC(=O)C1=C(OC(=O)c2cc(F)nn2[C@H](C)c2ccccc2)CCCC1` [Compound A54], in that order: over 9 and over 12 mg/kg.
Compound `CC#CC(C)OC(=O)c1ccnn1[C@H](C)c1ccccc1` (stereo partly drawn) [Compound A11] displayed an Approximate therapeutic index of over 4 and a Minimal lethal dose of over 8 mg/kg.
`CC#CC(C)(C)OC(=O)c1ccnn1[C@H](C)c1ccccc1` [Compound A12] returned an Approximate therapeutic index of over 4 and a Minimal lethal dose of over 6 mg/kg.

The subject of a further data set is Sprague-Dawley rats. As to the kind of experiment: animal or person. As to conditions: Rattus norvegicus, LORR in rats, tail vein; brackets = 95% confidence limit. The method, then: as §1
For `CC(C)O[C@H]1C[C@@H](OC(=O)c2cnnn2[C@H](C)c2ccccc2)C1` [Compound B26], the ED50 is 1 to 2 mg/kg.

The same data set, now with this note: rats.
`CC(C)O[C@H]1C[C@@H](OC(=O)c2cnnn2[C@H](C)c2ccccc2)C1` [Compound B26]: the Approximate therapeutic index is over 10 and the Minimal lethal dose is listed as over 12 mg/kg.
